Test results: patent publication US20240384268A1, “Oligonucleotides” (Hudson Institute of Medical Research, priority 2021, published 2024)
In the oligonucleotide strings, read from the 5' end, every base follows the letter of its sugar. An asterisk marks phosphorothioate; unmarked linkages are phosphodiester. Other units and linkages are bracketed, terminal groups are in braces. A string of capitals states the bases alone. d = 2'-deoxy (DNA); m = 2'-O-methyl

Target: T1, TLR8 (Homo sapiens, UniProt Q9NR97)
T1 sequence (Q9NR97 27-1041): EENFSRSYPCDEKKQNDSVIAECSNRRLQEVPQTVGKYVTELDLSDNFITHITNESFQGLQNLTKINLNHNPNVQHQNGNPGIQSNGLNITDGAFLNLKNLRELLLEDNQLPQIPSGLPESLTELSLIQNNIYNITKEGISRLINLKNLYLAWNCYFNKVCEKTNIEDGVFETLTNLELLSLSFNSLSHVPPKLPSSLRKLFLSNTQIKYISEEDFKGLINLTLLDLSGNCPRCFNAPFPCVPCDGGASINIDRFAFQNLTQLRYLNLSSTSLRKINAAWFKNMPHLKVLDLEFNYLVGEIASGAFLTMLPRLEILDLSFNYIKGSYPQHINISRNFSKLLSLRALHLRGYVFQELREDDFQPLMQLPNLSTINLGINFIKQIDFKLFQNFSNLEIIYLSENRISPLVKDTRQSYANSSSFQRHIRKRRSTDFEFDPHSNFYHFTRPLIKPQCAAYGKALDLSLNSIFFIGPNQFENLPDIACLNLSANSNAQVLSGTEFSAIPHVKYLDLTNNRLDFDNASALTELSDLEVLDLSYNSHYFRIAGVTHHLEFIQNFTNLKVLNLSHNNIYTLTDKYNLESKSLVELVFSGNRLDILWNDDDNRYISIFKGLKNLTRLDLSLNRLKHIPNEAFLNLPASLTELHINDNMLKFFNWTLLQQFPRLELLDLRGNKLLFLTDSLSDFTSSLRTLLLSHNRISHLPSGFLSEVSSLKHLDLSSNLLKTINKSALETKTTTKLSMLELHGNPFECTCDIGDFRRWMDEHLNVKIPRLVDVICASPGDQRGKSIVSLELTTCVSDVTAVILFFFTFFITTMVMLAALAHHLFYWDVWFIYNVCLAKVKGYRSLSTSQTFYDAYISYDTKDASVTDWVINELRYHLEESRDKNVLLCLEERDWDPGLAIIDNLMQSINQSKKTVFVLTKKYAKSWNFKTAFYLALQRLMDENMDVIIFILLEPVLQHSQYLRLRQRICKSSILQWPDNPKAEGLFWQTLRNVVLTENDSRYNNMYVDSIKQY
Assay: HEK-TLR8 NF-κB-luciferase reporter, R848 or Motolimod stimulation (potentiation or inhibition)
Type: cell-based
Parameters: expressed in transfected cells; host or cells: 293XLhTLR8 (HEK293)
Settings: for TLR8 100 nM (averaged NF-κB-Luciferase level relative to R848 condition, fold increase): ASO 100 nM; for TLR8 100 nM (averaged NF-κB-Luciferase level relative to R848 condition, fold increase) / TLR8 500 nM (averaged NF-κB-Luciferase level relative to R848 condition, fold increase): relative to R848 only; for TLR8 500 nM (averaged NF-κB-Luciferase level relative to R848 condition, fold increase): ASO 500 nM; for TLR8-500 nM: averaged NF-κB-Luciferase relative to R848: HEK-TLR8, 500 nM ASO, fold increase relative to R848 without ASO (Alharbi et al., 2020)

Substance	TLR8 100 nM (averaged NF-κB-Luciferase level relative to R848 condition, fold increase)	TLR8 500 nM (averaged NF-κB-Luciferase level relative to R848 condition, fold increase)	TLR8-500 nM: averaged NF-κB-Luciferase relative to R848 [fold]	TLR8 100 nM (MOE-modified ASO at 100 nM, averaged NF-κB-Luciferase relative to R848 condition (fold increase))	TLR8 500 nM (MOE-modified ASO at 500 nM, averaged NF-κB-Luciferase relative to R848 condition (fold increase))
ATGGCCTCCCATCTCC (antisense; LNA-modified, pattern not given here) [HPRT LNA-330 V1]	0.369	1.356			
TGGTCCACAACCCCTT (antisense; LNA-modified, pattern not given here) [MB21D1-697 LNA V1]	0.559	1.454			
GTGATCTTGACATGCT (antisense; LNA-modified, pattern not given here) [EGFR-2790 LNA KL]	0.583	1.806			
GTCTCTGGAGCTTCCT (antisense; LNA-modified, pattern not given here) [CAMSAP1-2456 LNA V1]	0.764	2.402			
TTCAGGCGCTGCCTTG (antisense; LNA-modified, pattern not given here) [CAMSAP1-2709 LNA V1]	0.479	0.764			
CCACATCCTGTGGCTC (antisense; LNA-modified, pattern not given here) [CAMSAP1-2906 LNA V1]	0.291	0.232			
GAAAGGTTATGCAAGG (antisense; LNA-modified, pattern not given here) [CTNN2B-916 LNA KL]	1.156	4.110			
AACCCCTTTCACCATC (antisense; LNA-modified, pattern not given here) [MB21D1-689 LNA KL]	1.871	8.654			
CGTATTATAGCCGATT (antisense; LNA-modified, pattern not given here) [NC1 LNA PS 3-10-3]	0.396	0.716			
AGGACTCCAGATGTTT (antisense; LNA-modified, pattern not given here) [HPRT LNA pos cont]	0.278	1.034			
mU*mA*mU*mU*mU*C*C*A*C*A*T*G*C*C*C*mA*mG*mU*mG*mU (mU*mA*mU*mU*mU*dC*dC*dA*dC*dA*dT*dG*dC*dC*dC*mA*mG*mU*mG*mU; antisense) [[CDKN2B-AS1]627]			3.87		
AGTGTTGAGATACTCG (antisense; LNA-modified, pattern not given here) [EGFR-3652 LNA KL]	0.427	0.599			
TCCGCCCAAAGGGAAC (antisense; LNA-modified, pattern not given here) [HPRT LNA-1027 KL]	0.541	0.725			
TCTTCATCGGCCCTGC (antisense; LNA-modified, pattern not given here) [CAMSAP1-2112 LNA V1]	0.595	1.393			
CGGCCTCGGAAGCTCT (antisense; LNA-modified, pattern not given here) [MB21D1-168 LNA V1]	0.402	0.219			
AAAGGACTGAGGAAAG (antisense; LNA-modified, pattern not given here) [CAMSAP1-6273 LNA KL]	0.882	2.663			

Substance	TLR8 100 nM (averaged NF-κB-Luciferase level relative to R848 condition, fold increase)	TLR8 500 nM (averaged NF-κB-Luciferase level relative to R848 condition, fold increase)	TLR8-500 nM: averaged NF-κB-Luciferase relative to R848 [fold]	TLR8 100 nM (MOE-modified ASO at 100 nM, averaged NF-κB-Luciferase relative to R848 condition (fold increase))	TLR8 500 nM (MOE-modified ASO at 500 nM, averaged NF-κB-Luciferase relative to R848 condition (fold increase))
CTGCAGCTTCCTTGTC (antisense; LNA-modified, pattern not given here) [CTNN2B-2136 LNA V1]	0.478	0.936			
mA*mG*mU*mG*mG*C*A*C*A*T*A*C*C*A*C*mA*mC*mC*mC*mU (AGUGGCACATACCACACCCU; antisense; sugars from the 5' end m5 d10 m5, all phosphorothioate, methylation of C not given here) [[CDKN2B-AS1]495]			4.48		
CCTTGCACGTGGCTTC (antisense; LNA-modified, pattern not given here) [EGFR-1013 LNA V1]	1.315	2.414			
mA*mA*mG*mC*mA*G*T*C*T*C*C*A*T*G*T*mC*mC*mC*mA*mG (mA*mA*mG*mC*mA*dG*dT*dC*dT*dC*dC*dA*dT*dG*dT*mC*mC*mC*mA*mG; antisense) [[CDKN2B-AS1]2236]			2.62		
CACTTCGTGGGGTCCT (antisense; LNA-modified, pattern not given here) [HPRT LNA-664 V1]	0.425	1.446			
GACTATACGCGCAATA (antisense; LNA-modified, pattern not given here) [NC5 LNA PS 3-10-3]	0.777	3.376			
ACACTTCGTGGGGTCCTTTT (antisense; 2'-MOE modified, pattern not given here) [HPRT-663 MOE]				4.778	6.320
ACGTTCAGTCCTGTCC (antisense; LNA-modified, pattern not given here) [HPRT LNA-294 V1]	0.356	0.493			
CCCACTTGGCAGACCA (antisense; LNA-modified, pattern not given here) [CTNN2B-1576 LNA V1]	0.899	1.865			
GTCAAGGGCATATCCT (antisense; LNA-modified, pattern not given here) [HPRT LNA-732 KL]	0.543	2.301			
mA*mG*mC*mA*mG*T*C*T*C*C*A*T*G*T*C*mC*mC*mA*mG*mG (AGCAGTCTCCATGTCCCAGG; antisense; sugars from the 5' end m5 d10 m5, all phosphorothioate, methylation of C not given here) [[CDKN2B-AS1]2235]			4.93		
ACCACGTCTGCTCTAA (antisense; LNA-modified, pattern not given here) [CAMSAP1-1635 LNA KL]	0.933	4.259			
AATCCAACAAAGTCTG (antisense; LNA-modified, pattern not given here) [HPRT LNA-692 KL]	0.591	1.900			
TGTCCTTGCACGTGGC (antisense; LNA-modified, pattern not given here) [EGFR-1016 LNA V1]	0.636	1.158			
TCCATACCCAAGGCAT (antisense; LNA-modified, pattern not given here) [CTNN2B-2446 LNA V1]	0.595	1.334			
CTTCGTGGGGTCCTTT (antisense; LNA-modified, pattern not given here) [HPRT LNA-662 V1]	1.097	4.366			
